Consider two compounds from article PMC11323699, “The CD47/TSP-1 axis: a promising avenue for ovarian cancer treatment and biomarker research” (Molecular Cancer, 2024).

Series [1] relates to ID8 Trp53−/− Brca2−/− cells. Description: TAX2 efficacy alone or in sequential combination with olaparib, metastatic peritoneal carcinomatosis model. It is filed as in vivo, C57BL/6 J mice. Conditions: for Mouse survival, prolonged olaparib design: from day 7 post inoculation olaparib 50 mg/kg per os daily 5 weeks, then TAX2 30 mg/kg IV three times a week, n = 7–11 per group, p = 0.0014 post discontinuation, median survival p = 0.0205; for Animal survival versus controls (Kaplan–Meier): same regimens as Fig. 6b, Gehan–Breslow–Wilcoxon test, TAX2 p = 0.0347 vs controls; for Median survival: treatment from day after IP inoculation, TAX2 30 mg/kg IV 3 times weekly for 6 weeks or olaparib 50 mg/kg per os daily for 2 weeks, n = 9–19 per group, end point 20% body weight gain. As to the method: Eight-week-old C57BL/6 J mice were IP injected with 2 × 10^6 ID8 Trp53^−/− Brca2^−/− cells in 300 µL HBSS. For mouse treatments, TAX2 peptide was IV injected at 30 to 100 mg/kg, three times a week; olaparib (catalog no. M1664, AbMole, TX, USA) was given per os at a 50 mg/kg BW dose, daily. Two different sequential treatments were performed. In the first one, mice were treated one day after tumor inoculation with olaparib for 2 weeks followed by 4 weeks of TAX2. In the second one, mice were randomized 7 days after tumor inoculation and first treated with olaparib daily for 5 weeks or an identical volume of olaparib vehicle composed of 10% (2-hydroxypropyl)-β-cyclodextrin and 10% DMSO in D-PBS buffer. Mice were then sequentially treated with TAX2 for a maximum of 3 weeks. […] Mice were weighed twice or thrice a week and abdominal distension was measured using a digital caliper. Tumor burden was monitored using body weight change as a measure of ascitic fluid buildup post inoculation as previously described in the same model. Gain of 20% body weight was considered as the end point for survival analysis. In this orthotopic model, it is impossible to determine whether the absence of tumor uptake is treatment related or not. Therefore, mice showing no signs of tumor development (carcinosis, nodules, or ascites) at the time of euthanasia were excluded to avoid misinterpretation of the results.
Two-tailed Pearson and Spearman tests were used to assess the correlation between two linear or monotonic variables, respectively, and Mann–Whitney test was used where appropriate. Mouse survival curves were generated using Kaplan–Meier analysis with Gehan–Breslow–Wilcoxon tests as previously reported for ID8 syngeneic model. All graphs and statistics were generated with Prism (GraphPad Software, La Jolla, CA) using the statistical tests and sample sizes indicated in the figure legends.

Series [2] deals with ID8 Trp53−/− Brca2−/− ovarian carcinoma cells. The following applies: mouse, in vivo, 10 mg/kg.
Protocol: After 5 (IP model) or 10 (SC model) weeks of tumor growth, mice received an IV bolus dose of TAX2-Cy5 at 10 mg/kg BW in injectable saline solution. After in vivo imaging and mouse euthanasia, subcutaneous tumor or peritoneal tumor mass and metastatic nodules, were collected and imaged with instrument sensitivity set to “Normal” using the same protocol as described above for healthy mice. TAX2-Cy5 concentration was calculated as described above.
Series [3] can be described thus: Toxicology and safety pharmacology studies in rats. Conditions: Sprague–Dawley rats, data not shown.
A short description of series [4]: Toxicology and safety pharmacology studies in dogs. The following applies: beagle dogs, data not shown.

Take `O=C(c1cc(Cc2n[nH]c(=O)c3ccccc23)ccc1F)N1CCN(C(=O)C2CC2)CC1` [olaparib]: in series [1], the “Mouse survival, prolonged olaparib design” value is recorded as “increased mouse survival” and the “Animal survival versus controls (Kaplan–Meier)” value is recorded as “failed to improve animal survival”. In addition, the “Mice exhibiting no response to olaparib (tumor burden)” value in series [1] (olaparib 50 mg/kg per os daily for 2 weeks, n = 20, tumor burden by body weight change) turned out to be 75%. The “Median survival of olaparib-resistant mice” value in series [1] (olaparib alone 50 mg/kg per os daily for 2 weeks, unresponsive mice n = 14, control 38 days) is 41 days. In addition, the Median survival in series [1] (control 38 days) is 43 days.
As to `CC(C)C[C@@H]1NC(=O)[C@H](CC(C)C)NC(=O)[C@H](CCC(N)=O)NC(=O)[C@H](CO)NC(=O)[C@H](C(C)C)NC(=O)[C@H](CCC(=O)O)NC(=O)[C@@H](N)CSSC[C@@H](C(=O)O)NC(=O)[C@H](C)NC(=O)[C@H](CC(=O)O)NC(=O)CNC(=O)[C@H](CCCCN)NC1=O` [TAX2], the “Localization at tumor sites” value in series [2] was “localization of TAX2 at tumor sites”. Also, the “Mice surviving for the duration of the experimental protocol (weak peritoneal carcinomatosis)” value in series [1] (TAX2 30 mg/kg IV 3 times weekly for 6 weeks) is recorded as 1 out of 9. In series [1], the “Mouse survival, prolonged olaparib design” value is given as “further improved survival” and the “Animal survival versus controls (Kaplan–Meier)” value is recorded as “modestly but significantly extended the survival rate”. Also, in series [1] (control 38 days), the Median survival is recorded as 44 days. The “Tolerability after systemic administration” value in series [3] is listed as “very well tolerated”. Besides, in series [4], the “Tolerability after systemic administration” value is listed as “very well tolerated”.
